The subject of the data set is DMPK. Briefly: DMPK knockdown by transfected antisense oligonucleotides in DM1 C15 myotubes at 0.5 nM and 50 nM. The data set is classed as cell-based. The conditions noted are these: 72 hours; for Normalized DMPK Remaining: relative to vehicle control = 1.00. A digest of the protocol: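 DMPK remaining was measured by qPCR 72 h post-transfection, normalized to lipofectamine-only vehicle wells (=1.00). Oligonucleotides were delivered at 0.5 and 50 nM final to DM1 C15 myoblasts differentiated seven days into myotubes, in triplicate.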

[1] abbreviates: 0.5 nM oligonucleotide, qPCR, relative to vehicle control.
Where [2] appears, read: 50 nM oligonucleotide, qPCR, relative to vehicle control.

For “347 (GCUCAGCAGUGUCAGCAGGU; chemistry not given here) [compound 347]”, the “Percent DMPK Reduction” value under setting [1] worked out at 29.18% and the “Percent DMPK Reduction” value under setting [2] is on record as 73.46%. In addition, the “Normalized DMPK Remaining” value by setting is: (0.5 nM oligonucleotide, qPCR) 0.71; (50 nM oligonucleotide, qPCR) 0.27.
Turning to “432 (UGCCUCGCGUAGUUGACUGG; chemistry not given here) [compound 432]”, for the setting “0.5 nM oligonucleotide”, the “Percent DMPK Reduction” value was found to be 11.03% and the “Normalized DMPK Remaining” value is given as 0.89. Besides, where the note is “50 nM oligonucleotide”, the “Percent DMPK Reduction” value was 88.02% and the “Normalized DMPK Remaining” value is 0.12.
Turning to “467 (AGCUCCCGCAGCGUCACCUC; chemistry not given here) [compound 467]”, for the setting “0.5 nM oligonucleotide”, the “Percent DMPK Reduction” value was 13.72% and the “Normalized DMPK Remaining” value is on record as 0.86. Besides, under “50 nM oligonucleotide”, the “Percent DMPK Reduction” value was found to be 80.40% and the “Normalized DMPK Remaining” value worked out at 0.20.
Take “481 (GGGAAAGCGCCUCCGAUAGG; chemistry not given here) [compound 481]”: for the setting “0.5 nM oligonucleotide”, the “Percent DMPK Reduction” value is 10.02% and the “Normalized DMPK Remaining” value turned out to be 0.90. For the same substance, under “50 nM oligonucleotide”, the “Percent DMPK Reduction” value was determined as 76.79% and the “Normalized DMPK Remaining” value is given as 0.23.
As to “400 (UGACCAGGUACAGGUAGUUC; chemistry not given here) [compound 400]”, where the note is “0.5 nM oligonucleotide”, the “Percent DMPK Reduction” value is reported as 22.00% and the “Normalized DMPK Remaining” value was 0.78. Where the note is “50 nM oligonucleotide”, the “Percent DMPK Reduction” value is 63.73% and the “Normalized DMPK Remaining” value was 0.36.
As to “276 (UGUGCACGUAGCCAAGCCGG; chemistry not given here) [compound 276]”, the “Percent DMPK Reduction” value under setting [1] was found to be 24.74% and the “Percent DMPK Reduction” value under setting [2] worked out at 75.09%. Besides, the “Normalized DMPK Remaining” value by setting is: (0.5 nM oligonucleotide, qPCR) 0.75; (50 nM oligonucleotide, qPCR) 0.25.
On to “386 (CUCAGUGCAUCCAAAACGUG; chemistry not given here) [compound 386]”, for which, under “0.5 nM oligonucleotide”, the “Percent DMPK Reduction” value is 7.65% and the “Normalized DMPK Remaining” value was 0.92. For the same substance, for the setting “50 nM oligonucleotide”, the “Percent DMPK Reduction” value is 54.26% and the “Normalized DMPK Remaining” value amounted to 0.46.
Take “355 (CCCGUCUGCUUCAUCUUCAC; chemistry not given here) [compound 355]”: the “Percent DMPK Reduction” value is 20.31% under setting [1] and 43.97% under setting [2]. Further, the “Normalized DMPK Remaining” value (0.5 nM oligonucleotide, qPCR) worked out at 0.80 and the “Normalized DMPK Remaining” value (50 nM oligonucleotide, qPCR) is given as 0.56.
The corresponding values for “342 (UGGCCACAGCGGUCCAGCAG; chemistry not given here) [compound 342]” are 29.59%, 69.44%, 0.70 and 0.31.
In the case of “479 (UUGUAGUGGACGAUCUUGCC; chemistry not given here) [compound 479]”, where the note is “0.5 nM oligonucleotide”, the “Percent DMPK Reduction” value came to 17.22% and the “Normalized DMPK Remaining” value is given as 0.83. Further, for the setting “50 nM oligonucleotide”, the “Percent DMPK Reduction” value came out at 81.05% and the “Normalized DMPK Remaining” value amounted to 0.19.
Regarding “261 (GAAGUCGGCCAGGCGGAUGU; chemistry not given here) [compound 261]”, the “Percent DMPK Reduction” value came to 18.36% under setting [1] and 44.04% under setting [2]. For the same substance, the “Normalized DMPK Remaining” value was found to be 0.82 (0.5 nM oligonucleotide, qPCR) and 0.56 (50 nM oligonucleotide, qPCR).
Take “306 (AGGGACAGCCGCUGGAACTG; chemistry not given here) [compound 306]”: the “Percent DMPK Reduction” value reads like this: under setting [1], 28.72%; under setting [2], 45.34%. For the same substance, the “Normalized DMPK Remaining” value reads like this: (0.5 nM oligonucleotide, qPCR) 0.71; (50 nM oligonucleotide, qPCR) 0.55.
For the substance “383 (CGGGCCCGGAUCACAGGACU; chemistry not given here) [compound 383]”, where the note is “0.5 nM oligonucleotide”, the “Percent DMPK Reduction” value is listed as 17.45% and the “Normalized DMPK Remaining” value is 0.83. In addition, for the setting “50 nM oligonucleotide”, the “Percent DMPK Reduction” value amounted to 67.11% and the “Normalized DMPK Remaining” value came to 0.33.
On to “289 (AUGACAAUCUCCGCCAGGUA; chemistry not given here) [compound 289]”, for which the “Percent DMPK Reduction” value by setting is: under setting [1], 42.38%; under setting [2], 60.47%. For the same substance, the “Normalized DMPK Remaining” value (0.5 nM oligonucleotide, qPCR) is on record as 0.58 and the “Normalized DMPK Remaining” value (50 nM oligonucleotide, qPCR) is given as 0.40.
For the substance “450 (ACAGAACAACGGCGAACAGG; chemistry not given here) [compound 450]”, under “0.5 nM oligonucleotide”, the “Percent DMPK Reduction” value is given as 2.07% and the “Normalized DMPK Remaining” value was determined as 0.98. Moreover, under “50 nM oligonucleotide”, the “Percent DMPK Reduction” value was 55.96% and the “Normalized DMPK Remaining” value is 0.44.
Regarding “256 (UCCGCCAGGUAGAAGCGCGC; chemistry not given here) [compound 256]”, the “Percent DMPK Reduction” value by setting is: under setting [1], 27.99%; under setting [2], 80.06%. In addition, the “Normalized DMPK Remaining” value is listed as 0.72 (0.5 nM oligonucleotide, qPCR) and 0.20 (50 nM oligonucleotide, qPCR).
Turning to “463 (AGGUAGUUCUCAUCCUGGAA; chemistry not given here) [compound 463]”, the “Percent DMPK Reduction” value by setting is: (0.5 nM oligonucleotide) 7.36%; (50 nM oligonucleotide) 62.62%. Further, the “Normalized DMPK Remaining” value by setting is: (0.5 nM oligonucleotide) 0.93; (50 nM oligonucleotide) 0.37.
“319 (ACACCUGGCCCGUCUGCUUC; chemistry not given here) [compound 319]”: the “Percent DMPK Reduction” value reads like this: under setting [1], 33.00%; under setting [2], 55.40%. For the same substance, the “Normalized DMPK Remaining” value (0.5 nM oligonucleotide, qPCR) was 0.67 and the “Normalized DMPK Remaining” value (50 nM oligonucleotide, qPCR) is 0.45.
In the same order, the values of “376 (GGCUCCUGGGCGGCGCCAGA; chemistry not given here) [compound 376]” are 0.05%, 96.23%, 1.00 and 0.04.
For “465 (GCAUCCAAAACGUGGAUUGG; chemistry not given here) [compound 465]”, under “0.5 nM oligonucleotide”, the “Percent DMPK Reduction” value is recorded as 2.54% and the “Normalized DMPK Remaining” value is 0.97. Also, under “50 nM oligonucleotide”, the “Percent DMPK Reduction” value was 72.69% and the “Normalized DMPK Remaining” value was determined as 0.27.
In the case of “332 (AAUCUCCGCCAGGUAGAAGC; chemistry not given here) [compound 332]”, the “Percent DMPK Reduction” value under setting [1] was 35.85% and the “Percent DMPK Reduction” value under setting [2] is 65.27%. Further, the “Normalized DMPK Remaining” value reads like this: (0.5 nM oligonucleotide, qPCR) 0.64; (50 nM oligonucleotide, qPCR) 0.35.
In the same order, the values of “259 (CAGCUGCGUGAUCCACCGCC; chemistry not given here) [compound 259]” are 19.03%, 68.34%, 0.81 and 0.32.
Regarding “390 (UCCUGCAACUGCCGGACGUG; chemistry not given here) [compound 390]”, under “0.5 nM oligonucleotide”, the “Percent DMPK Reduction” value is given as 16.06% and the “Normalized DMPK Remaining” value was 0.84. For the same substance, under “50 nM oligonucleotide”, the “Percent DMPK Reduction” value turned out to be 44.61% and the “Normalized DMPK Remaining” value is reported as 0.55.
In the same order, the values of “476 (AGCGUCACCUCGGCCUCAGC; chemistry not given here) [compound 476]” are 22.10%, 0.78, 64.70% and 0.35.
For the substance “478 (CCAGCGGCAGAGAGAGGUGC; chemistry not given here) [compound 478]”, the “Percent DMPK Reduction” value by setting is: (0.5 nM oligonucleotide) 3.23%; (50 nM oligonucleotide) 84.55%. The “Normalized DMPK Remaining” value reads like this: (0.5 nM oligonucleotide) 0.97; (50 nM oligonucleotide) 0.15.
As for “328 (CUUGCCAUAGGUCUCCGCCG; chemistry not given here) [compound 328]”, the “Percent DMPK Reduction” value was 27.04% under setting [1] and 71.05% under setting [2]. Moreover, the “Normalized DMPK Remaining” value came to 0.73 (0.5 nM oligonucleotide, qPCR) and 0.29 (50 nM oligonucleotide, qPCR).
For “374 (CCGCUCCCCAAACUUGCUCA; chemistry not given here) [compound 374]”, the “Percent DMPK Reduction” value under setting [1] worked out at 0.28% and the “Percent DMPK Reduction” value under setting [2] is listed as 56.82%. The “Normalized DMPK Remaining” value runs as follows: (0.5 nM oligonucleotide, qPCR) 1.00; (50 nM oligonucleotide, qPCR) 0.43.
For the substance “452 (CGGCCUCAGCCUCUGCCGCA; chemistry not given here) [compound 452]”, the “Percent DMPK Reduction” value was found to be 6.71% (0.5 nM oligonucleotide) and 60.06% (50 nM oligonucleotide). For the same substance, the “Normalized DMPK Remaining” value by setting is: (0.5 nM oligonucleotide) 0.93; (50 nM oligonucleotide) 0.40.
For the substance “399 (GGCACGAGACAGAACAACGG; chemistry not given here) [compound 399]”, for the setting “0.5 nM oligonucleotide”, the “Percent DMPK Reduction” value was determined as 16.10% and the “Normalized DMPK Remaining” value is 0.84. Under “50 nM oligonucleotide”, the “Percent DMPK Reduction” value was found to be 68.01% and the “Normalized DMPK Remaining” value turned out to be 0.32.
As for “401 (CUCUGCCGGGUGAGCACCUC; chemistry not given here) [compound 401]”, under “0.5 nM oligonucleotide”, the “Percent DMPK Reduction” value was found to be 25.25% and the “Normalized DMPK Remaining” value came out at 0.75. Besides, under “50 nM oligonucleotide”, the “Percent DMPK Reduction” value is 74.36% and the “Normalized DMPK Remaining” value amounted to 0.26.
For the substance “349 (UUUGCCCAUCCACGUCAGGG; chemistry not given here) [compound 349]”, the “Percent DMPK Reduction” value was found to be 32.79% under setting [1] and 59.36% under setting [2]. In addition, the “Normalized DMPK Remaining” value is, setting by setting: (0.5 nM oligonucleotide, qPCR) 0.67; (50 nM oligonucleotide, qPCR) 0.41.
With “474 (AGUCGGCCAGGCGGAUGUGG; chemistry not given here) [compound 474]”, where the note is “0.5 nM oligonucleotide”, the “Percent DMPK Reduction” value was 6.15% and the “Normalized DMPK Remaining” value was 0.94. Besides, where the note is “50 nM oligonucleotide”, the “Percent DMPK Reduction” value turned out to be 67.44% and the “Normalized DMPK Remaining” value was determined as 0.33.

(Values after US20230144436A1, “MUSCLE TARGETING COMPLEXES AND USES THEREOF FOR TREATING MYOTONIC DYSTROPHY” (Dyne Therapeutics, Inc., priority 2020, published 2023).)
